Read-outs that look alike come from different tables or passages of the source.
Assays:
opioid δ receptor = opioid δ receptor (Rattus norvegicus (Rat), UniProt P33533); test: Binding assay of opioid δ receptor ([3H]-DADLE, rat cerebrum membrane)
Procedure: (§1) 1) Method of Preparing Membrane Specimen for Binding Assay
(§2) A rat cerebrum (Slc: SD) which had been stored at −80° C. was used. To a cerebrum which had been weighed was added a 20-fold amount of ice-cooled 10 mM Tris-HCl buffer (pH 7.0), and the mixture was homogenized (25000 rpm, 30 seconds) with Histocolon (NITI-ON), and centrifuged at 36600×g for 20 minutes. To the resulting pellet was added 15 ml of the same buffer, and the mixture was treated with Histocolon similarly, and centrifuged. This washing work was performed two times. After centrifugation, to the resulting pellet was added 15 mL of a 50 mM Tris-HCl buffer (pH 7.4), and this was treated with Histocolon, and finally resuspended in a 10-fold amount of the same buffer, which was used as a crude membrane fraction (Life Sci. 48, 111-116, 1991). The prepared membrane specimen was frozen and stored at −80° C., and at an assay, the specimen was rapidly thawed, and diluted to about 900 μg/mL with a 50 mM Tris-HCl buffer (pH 7.4) after the centrifugation and Histocolon treatment, and was used in an experiment. For measuring a protein concentration of the membrane specimen, Micro BCA Protein Assay Kit (PIERCE) was used.
2) Method of δ Receptor Binding Assay and Data Analysis
Into a tube was placed 480 μl of a rat cerebrum membrane fraction to which 100 mM choline chloride, 3 mM MnCl2 and 100 nM DAMGO had been added, and this was incubated at 25° C. for 2 hours. […] After washing, the filter was transferred to a mini vial for liquid scintillation counter, 5 mL of a scintillator (Cleasol I) was added, this was allowed to stand overnight, and the radioactivity was measured for 3 minutes with a liquid scintillation counter Tri-Carb 2200CA (PACKARD).

opioid μ receptor = opioid μ receptor (Rattus norvegicus (Rat), UniProt P33535); test: Binding assay to opioid μ receptor ([3H]-DAMGO, rat cerebrum membrane)
Procedure: as §1
as §2, with “(pH 7.0), the mixture” for “(pH 7.0), and the mixture”, “(pH 7.4), this was” for “(pH 7.4), and this was”, “Histocolon, and this was finally resuspended” for “Histocolon, and finally resuspended”, “and at a test, the specimen” for “and at an assay, the specimen”
2) Method of μ Receptor Binding Assay and Data Analysis
After washing, the filter was transferred to a mini vial for liquid scintillation counter, 5 mL of a scintillator (Cleasol I) was added, and this was allowed to stand overnight, and the radioactivity was measured for 3 minutes with a liquid scintillation counter Tri-Carb 2200CA (PACKARD).

[1] = tested on: carbon powder transport of inhibitory activity by morphine; test: Mouse carbon powder transport assay (antagonism of morphine-inhibited small intestine transport); assay type: in vivo; conditions: sc, 1 h, test compound 3 mg/kg subcutaneously, 15 minutes before morphine 3 mg/kg
Procedure: 1) Preparation of Test Diet (Carbon Powder)
Using a 10 w/v % arabic gum aqueous solution, a 5 w/v % active carbon solution was prepared, which was used as a test diet.
A ddY line male mouse (5 to 6 weeks old) was used. The mouse was fasted from about 20 or more hours before assay initiation, and water was given ad lib.
The test compound was dissolved in a solvent (DMAA/Solutol/5% meglumine=15/15/70).
Morphine hydrochloride was dissolved in a physiological saline. The test compound, the above solvent and morphine were all administered at a liquid amount of 10 mL/kg.
The test compound 3 mg/kg (test compound administration group) or the solvent (solvent administration group) were subcutaneously administered and, after 15 minutes, amount of 3 mg/kg of morphine was administered to all groups. As a control group, the solvent was subcutaneously administered and, after 15 minutes, a physiological saline was administered.
The test diet 10 mL/kg was orally administered at 15 minutes after administration of morphine. At thirty minutes after administration of the test diet (60 minutes after administration of the test substance), all mice were isolated from esophagus to an ileocecal part near a stomach cardia part. A distance from pyloric part of the stomach to an ileocecal part (full length of small intestine) and a distance until a carbon powder reaching front part (carbon powder movement distance) were measured. The antagonistic activity on the carbon powder transport of inhibitory activity by morphine was calculated as MPE (%) using the following equation. Transport rate (%)=(carbon powder movement distance)/full length of small intestine (cm))×100 M.P.E. (%)={(small intestine transport rate (%) of each individual of test compound administration group−average small intestine transport rate (%) of solvent administration group)/(average small intestine transport rate (%) of control group−average small intestine transport rate (%) of solvent administration group)}×100

[2] = [3H]-DAMGO, rat cerebrum membrane fraction, read-out: Ki
[3] = [3H]-DADLE, rat cerebrum membrane fraction, read-out: Ki

SMILES | Ki (opioid δ receptor) [nM] | Ki (opioid μ receptor) [nM] | percent antagonism of morphine-inhibited transport (M.P.E.) at 3 mg/kg [1] [%] | Ki (opioid μ receptor; [2]) [nM] | further results
CCCCNC(=O)C1=C(O)[C@@H]2Oc3c(O)ccc4c3[C@@]23CCN(CC2CC2)[C@H](C4)[C@]3(O)C1 [Compound I-3] | 8.76 | – | – | – | –
O=C(Nc1ccccc1)C1=C(O)[C@@H]2Oc3c(O)ccc4c3[C@@]23CCN(CC2CC2)[C@H](C4)[C@]3(O)C1 [Compound I-10] | 19.9 | 4.05 | – | – | –
COCC(C)(C)NC(=O)C1=C(O)[C@@H]2Oc3c(O)ccc4c3[C@@]23CCN(CC2CC2)[C@H](C4)[C@]3(O)C1 [Compound I-286] | 2.46 | 14 | 70.6 | – | –
COCC1(NC(=O)C2=C(O)[C@@H]3Oc4c(O)ccc5c4[C@@]34CCN(CC3CC3)[C@H](C5)[C@]4(O)C2)CC1 [Compound I-283] | 3.73 | 20.1 | 63.7 | – | –
COc1ccc(NC(=O)C2=C(O)[C@@H]3Oc4c(O)ccc5c4[C@@]34CCN(CC3CC3)[C@H](C5)[C@]4(O)C2)cn1 [Compound I-118] | – | – | 55.6 | – | –
Cc1cc(=O)[nH]c2cc(NC(=O)C3=C(O)[C@@H]4Oc5c(O)ccc6c5[C@@]45CCN(CC4CC4)[C@H](C6)[C@]5(O)C3)ccc12 [Compound I-240] | 11.5 | – | 36.3 | 6.85 | –
Cc1ccc2nc(=O)c3c(n2c1)[C@@H]1Oc2c(O)ccc4c2[C@@]12CCN(CC1CC1)[C@H](C4)[C@]2(O)C3 [Compound I-267] | – | – | 60 | 0.84 | Ki (opioid δ receptor; [3]): 41.5 nM
COC(=O)C1(NC(=O)C2=C(O)[C@@H]3Oc4c(O)ccc5c4[C@@]34CCN(CC3CC3)[C@H](C5)[C@]4(O)C2)CCCC1 [Compound I-133] | – | – | 107 | 4.99 | Ki (opioid δ receptor; [3]): 9.85 nM
Cc1noc(C(C)(C)NC(=O)C2=C(O)[C@@H]3Oc4c(O)ccc5c4[C@@]34CCN(CC3CC3)[C@H](C5)[C@]4(O)C2)n1 [Compound I-285] | 5.77 | – | 82.5 | 7.29 | –
O=C(Nc1cccnc1)C1=C(O)[C@@H]2Oc3c(O)ccc4c3[C@@]23CCN(CC2CC2)[C@H](C4)[C@]3(O)C1 [Compound I-92] | 5.23 | – | – | – | –
CN(Cc1ccccc1)C(=O)C1=C(O)[C@@H]2Oc3c(O)ccc4c3[C@@]23CCN(CC2CC2)[C@H](C4)[C@]3(O)C1 [Compound I-13] | 5.02 | – | – | – | –
COCC(C)(COC)NC(=O)C1=C(O)[C@@H]2Oc3c(O)ccc4c3[C@@]23CCN(CC2CC2)[C@H](C4)[C@]3(O)C1 [Compound I-288] | 5.36 | 14.4 | 101 | – | –
Cc1cc(NC(=O)C2=C(O)[C@@H]3Oc4c(O)ccc5c4[C@@]34CCN(CC3CC3)[C@H](C5)[C@]4(O)C2)on1 [Compound I-138] | – | – | 55.8 | 15.5 | –
COC(=O)C1(NC(=O)C2=C(O)[C@@H]3Oc4c(O)ccc5c4[C@@]34CCN(CC3CC3)[C@H](C5)[C@]4(O)C2)CC1 [Compound I-135] | – | – | 59.7 | – | Ki (opioid δ receptor; read-out: Ki): 9.76 nM; Ki (opioid μ receptor; read-out: Ki): 1.58 nM
CC(C)(NC(=O)C1=C(O)[C@@H]2Oc3c(O)ccc4c3[C@@]23CCN(CC2CC2)[C@H](C4)[C@]3(O)C1)c1nc(-c2ccccc2)no1 [Compound I-284] | – | 1.13 | 79.6 | – | Ki (opioid δ receptor; [3]): 0.91 nM
CC(C)NC(=O)C1=C(NS(=O)(=O)c2ccc(Cl)cc2)[C@@H]2Oc3c(O)ccc4c3[C@@]23CCN(CC2CC2)[C@H](C4)[C@]3(O)C1 [Compound I-244] | – | – | 71.6 | – | –
COc1cc(NC(=O)C2=C(O)[C@@H]3Oc4c(O)ccc5c4[C@@]34CCN(CC3CC3)[C@H](C5)[C@]4(O)C2)ncn1 [Compound I-243] | 5.2 | 5.28 | 52.6 | – | –
O=C(Nc1ccc([N+](=O)[O-])cn1)C1=C(O)[C@@H]2Oc3c(O)ccc4c3[C@@]23CCN(CC2CC2)[C@H](C4)[C@]3(O)C1 [Compound I-208] | 13.3 | 5.89 | 81.2 | – | –
CC(C)NC(=O)C1=C(NS(=O)(=O)c2ccc(F)cc2)[C@@H]2Oc3c(O)ccc4c3[C@@]23CCN(CC2CC2)[C@H](C4)[C@]3(O)C1 [Compound I-289] | – | – | 67 | 12.9 | Ki (opioid δ receptor; [3]): 0.47 nM
O=C(NS(=O)(=O)c1cccc(Cl)c1)C1=C(O)[C@@H]2Oc3c(O)ccc4c3[C@@]23CCN(CC2CC2)[C@H](C4)[C@]3(O)C1 [Compound I-122] | – | – | 31.5 | 2.7 | –
O=C(N[C@H]1CCOC1=O)C1=C(O)[C@@H]2Oc3c(O)ccc4c3[C@@]23CCN(CC2CC2)[C@H](C4)[C@]3(O)C1 [Compound I-145] | – | – | 60.2 | 28.1 | Ki (opioid δ receptor; [3]): 13.9 nM
CCN(CC)S(=O)(=O)c1ccc(OC)c(NC(=O)C2=C(O)[C@@H]3Oc4c(O)ccc5c4[C@@]34CCN(CC3CC3)[C@H](C5)[C@]4(O)C2)c1 [Compound I-229] | 5.9 | – | 39.7 | 1.3 | –
CC(C)NC(=O)C1=C(O)[C@@H]2Oc3c(O)ccc4c3[C@@]23CCN(CC2CC2)[C@H](C4)[C@]3(O)C1 [Compound I-4, 7-Isopropylaminocarbonylnaltrexone] | 7.38 | 5.18 | – | – | –
COc1ccc(S(=O)(=O)NC(=O)C2=C(O)[C@@H]3Oc4c(O)ccc5c4[C@@]34CCN(CC3CC3)[C@H](C5)[C@]4(O)C2)cc1 [Compound I-123] | – | – | 44.1 | 1.68 | –
O=C(C1=C(O)[C@@H]2Oc3c(O)ccc4c3[C@@]23CCN(CC2CC2)[C@H](C4)[C@]3(O)C1)N1CCCC1 [Compound I-7] | 7.4 | – | – | – | –
CN(C)c1ccc(NC(=O)C2=C(O)[C@@H]3Oc4c(O)ccc5c4[C@@]34CCN(CC3CC3)[C@H](C5)[C@]4(O)C2)cc1 [Compound I-39] | 41.8 | 0.33 | 52 | – | –
O=C(NS(=O)(=O)c1ccc(F)cc1)C1=C(O)[C@@H]2Oc3c(O)ccc4c3[C@@]23CCN(CC2CC2)[C@H](C4)[C@]3(O)C1 [Compound I-124] | – | – | 46.6 | – | Ki (opioid μ receptor; read-out: Ki): 3.9 nM
COC(=O)C(C)(C)NC(=O)C1=C(O)[C@@H]2Oc3c(O)ccc4c3[C@@]23CCN(CC2CC2)[C@H](C4)[C@]3(O)C1 [Compound I-49] | – | 16.5 | 80 | – | Ki (opioid δ receptor; [3]): 3.99 nM
O=C(NCCOc1ccccc1)C1=C(O)[C@@H]2Oc3c(O)ccc4c3[C@@]23CCN(CC2CC2)[C@H](C4)[C@]3(O)C1 [Compound I-30] | 5.34 | – | – | – | –

Source: patent publication US8536192B2, “6,7-unsaturated-7-carbamoyl substituted morphinan derivative” (priority 2005, dated 2013)
